Measured values taken from patent US9714239B2, “N-phenyl-lactam derivatives capable of stimulating neurogenesis and their use in the treatment of neurological disorders” (Hoffmann-La Roche Inc., priority 2014, dated 2017).

system: human embryonic stem cell derived neural stem cells (NSCs); test: Neurogenesis assay: neural stem cell proliferation assay; settings: 96 h, compound concentration at which 150% activity of control (100%) is reached, increase in cells based on ATP levels (CellTiterGlo), 4 days incubation, dose response 8 μM to 8 nM
Protocol: Neural Stem Cell Proliferation Assay
Neurogenic properties of small molecules are determined based on the proliferation of human embryonic stem cell derived neural stem cells (NSCs) which were derived via a dual smad inhibition as previously described (Chambers, S. M., et al., Highly efficient neural conversion of human ES and iPS cells by dual inhibition of SMAD signaling, Nature biotechnology, 2009 27(3): p. 275-80.).
Compounds response is measured by the increase in cells based on ATP levels (Promega:CellTiterGlo®) after an incubation period of 4 days. NSCs are thawed and expanded over 3 passages. On the 14th day, NSCs are seeded in Polyornithin/Laminin coated 384 well plates at a cell density of 21,000 cells/cm^2 in a media volume of 38 μl.
4 hours after cell seeding, compound solutions are added at a volume of 2 μl. Stock solutions of the compounds (water, 5% DMSO) are diluted to obtain a dose response (11 points, dilution factor is 2), ranging from 8 μM to 8 nM. Controls are run to consistently determine the neurogenic properties of the cells:
Negative (neutral) control is cell culture Media (final DMSO concentration: 0.25%).
1. cell culture Media+100 ng/ml FGF2 (final DMSO concentration: 0.1%)
2. cell culture Media+20 ng/ml EGF (final DMSO concentration: 0.1%)
3. cell culture Media+100 ng/ml Wnt3a (final DMSO concentration: 0.1%)
After 4 days incubation at 37° C., 5% CO2, the amount of ATP per well is quantified. The ATP concentration is proportional to the cell number. ATP is quantified by using the Promega CellTiterGlo® kit. The CellTiterGlo® reagents contain a cell lysis buffer, a thermo stable luciferase (UltraGlo™ recombinant luciferase), magnesium and luciferin. Luciferin reacts with ATP producing oxyluciferin, AMP and light. The luminescence signal is proportional to the ATP content.
The value of negative (neutral) control is determined for each assay plate by taking the average of 16 negative control wells. The neurogenic compound response is calculated for each compound as (compound/Negative Control)*100. The values of EC150 from the dose response curve are determined for each test compound. The EC150 is the compound concentration at which 150% activity of control (100%) is reached.

Structure (SMILES) | EC (150% of control)
COc1cc(N2CCC(Cc3ccccc3Cl)C2=O)ccc1-c1cn[nH]c1 (stereo not shown) [Example 37, 3-[(2-Chlorophenyl)methyl]-1-[3-methoxy-4-(1H-pyrazol-4-yl)phenyl]pyrrolidin-2-one] | 1.13 µM
COc1cc(N2CCC(c3cccc(Cl)c3)C2=O)ccc1-c1cnco1 (stereo not shown) [Example 38, 3-(3-Chlorophenyl)-1-[3-methoxy-4-(1,3-oxazol-5-yl)phenyl]pyrrolidin-2-one] | 1.35 µM
COc1cccc(CN2CCN(c3ccc(-c4cn[nH]c4)cc3OC)C2=O)c1 [Example 39, 1-[(3-Methoxyphenyl)methyl]-3-[2-methoxy-4-(1H-pyrazol-4-yl)phenyl]imidazolidin-2-one] | 0.393 µM
COc1cccc(CC2CCN(c3ccc(-c4cn[nH]c4)c(OC)c3)C2=O)c1 (stereo not shown) [Example 40, 3-[(3-Methoxyphenyl)methyl]-1-[3-methoxy-4-(1H-pyrazol-4-yl)phenyl]pyrrolidin-2-one] | 0.334 µM
COc1cc(N2CCC(c3ccccc3OC)C2=O)ccc1-c1cnco1 (stereo not shown) [Example 41, 1-[3-Methoxy-4-(1,3-oxazol-5-yl)phenyl]-3-(2-methoxyphenyl)pyrrolidin-2-one] | 2.91 µM
COc1ccccc1CN1CCN(c2ccc(-c3cn[nH]c3)c(OC)c2)C1=O [Example 42, 1-[(2-Methoxyphenyl)methyl]-3-[3-methoxy-4-(1H-pyrazol-4-yl)phenyl]imidazolidin-2-one] | 0.308 µM
COc1cc(N2CCN(CCc3ccccc3)C2=O)ccc1-c1cn[nH]c1 [Example 43, 1-[3-Methoxy-4-(1H-pyrazol-4-yl)phenyl]-3-(2-phenylethyl)imidazolidin-2-one] | 0.309 µM
COc1ccccc1CCN1CCN(c2ccc(-c3cn[nH]c3)c(OC)c2)C1=O [Example 44, 1-[2-(2-Methoxyphenyl)ethyl]-3-[3-methoxy-4-(1H-pyrazol-4-yl)phenyl]imidazolidin-2-one] | 1.98 µM
COc1cc(N2CCN(CCc3ccccc3Cl)C2=O)ccc1-c1cn[nH]c1 [Example 45, 1-[2-(2-Chlorophenyl)ethyl]-3-[3-methoxy-4-(1H-pyrazol-4-yl)phenyl]imidazolidin-2-one] | 0.136 µM
COc1cccc(CN2CCN(c3ccc(-c4cn[nH]c4)cc3Cl)C2=O)c1 [Example 46, 1-[2-Chloro-4-(1H-pyrazol-4-yl)phenyl]-3-[(3-methoxyphenyl)methyl]imidazolidin-2-one] | 1.83 µM
COc1cc(N2CCN(Cc3ccc(F)cc3)C2=O)ccc1-c1cn[nH]c1 [Example 47, 1-[(4-Fluorophenyl)methyl]-3-[3-methoxy-4-(1H-pyrazol-4-yl)phenyl]imidazolidin-2-one] | 0.768 µM
COc1cc(N2CCN(Cc3cccnc3)C2=O)ccc1-c1cn[nH]c1 [Example 48, 1-[3-Methoxy-4-(1H-pyrazol-4-yl)phenyl]-3-(3-pyridylmethyl)imidazolidin-2-one] | 0.119 µM
COc1cc(N2CCN(CCc3cccc(Cl)c3)C2=O)ccc1-c1cn[nH]c1 [Example 49, 1-[2-(3-Chlorophenyl)ethyl]-3-[3-methoxy-4-(1H-pyrazol-4-yl)phenyl]imidazolidin-2-one] | 1.73 µM
COc1cc(N2CCN(CCc3ccc(Cl)cc3)C2=O)ccc1-c1cn[nH]c1 [Example 50, 1-[2-(4-Chlorophenyl)ethyl]-3-[3-methoxy-4-(1H-pyrazol-4-yl)phenyl]imidazolidin-2-one] | 2.01 µM
CCC(c1ccccc1)N1CCN(c2ccc(-c3cn[nH]c3)c(OC)c2)C1=O (stereo not shown) [Example 51, 1-[3-Methoxy-4-(1H-pyrazol-4-yl)phenyl]-3-(1-phenylpropyl)imidazolidin-2-one] | 0.594 µM
COc1cccc(C2CCN(c3ccc(-c4cnco4)cc3)C2=O)c1 (stereo not shown) [Example 52, 3-(3-Methoxyphenyl)-1-[4-(1,3-oxazol-5-yl)phenyl]pyrrolidin-2-one] | 0.517 µM

Structure (SMILES) | EC (150% of control)
O=C1C(c2ccccc2)CCN1c1ccc(-c2cnco2)cc1 (stereo not shown) [Example 53, 1-[4-(1,3-Oxazol-5-yl)phenyl]-3-phenylpyrrolidin-2-one] | 2.21 µM
COc1cc(N2CCN(Cc3ccccc3C(F)(F)F)C2=O)ccc1-c1ccncc1 [Example 54, 1-[3-Methoxy-4-(4-pyridyl)phenyl]-3-[[2-(trifluoromethyl)phenyl]methyl]imidazolidin-2-one] | 0.0351 µM
COc1cc(N2CCN(Cc3ccncc3)C2=O)ccc1-c1ccncc1 [Example 55, 1-[3-Methoxy-4-(4-pyridyl)phenyl]-3-(4-pyridylmethyl)imidazolidin-2-one] | 0.377 µM
COc1cc(N2CCC(c3cccc(C(F)(F)F)c3)C2=O)ccc1-c1cnco1 (stereo not shown) [Example 56, 1-[3-Methoxy-4-(1,3-oxazol-5-yl)phenyl]-3-[3-(trifluoromethyl)phenyl]pyrrolidin-2-one] | 1.86 µM
O=C1C(c2ccccc2F)CCN1c1ccc(-c2cnco2)cc1 (stereo not shown) [Example 57, 3-(2-Fluorophenyl)-1-[4-(1,3-oxazol-5-yl)phenyl]pyrrolidin-2-one] | 0.525 µM
COc1cc(N2CCC(c3ccccc3F)C2=O)ccc1-c1cnco1 (stereo not shown) [Example 58, 3-(2-Fluorophenyl)-1-[3-methoxy-4-(1,3-oxazol-5-yl)phenyl]pyrrolidin-2-one] | 0.23 µM
COc1cccc(CN2CCN(c3ccc(-c4cnco4)cc3)C2=O)c1 [Example 59, 1-[(3-Methoxyphenyl)methyl]-3-[4-(1,3-oxazol-5-yl)phenyl]imidazolidin-2-one] | 0.122 µM
O=C1C(c2cccc(F)c2)CCN1c1ccc(-c2cnco2)cc1 (stereo not shown) [Example 60, 3-(3-Fluorophenyl)-1-[4-(1,3-oxazol-5-yl)phenyl]pyrrolidin-2-one] | 0.605 µM
COc1cc(N2CCC(c3cccc(F)c3)C2=O)ccc1-c1cnco1 (stereo not shown) [Example 61, 3-(3-Fluorophenyl)-1-[3-methoxy-4-(1,3-oxazol-5-yl)phenyl]pyrrolidin-2-one] | 0.262 µM
COc1cc(N2CCN(Cc3ccncc3)C2=O)ccc1-c1cn[nH]c1 [Example 62, 1-[3-Methoxy-4-(1H-pyrazol-4-yl)phenyl]-3-(4-pyridylmethyl)imidazolidin-2-one] | 0.042 µM
COc1cc(N2CCN(Cc3ccccn3)C2=O)ccc1-c1cn[nH]c1 [Example 63, 1-[3-Methoxy-4-(1H-pyrazol-4-yl)phenyl]-3-(2-pyridylmethyl)imidazolidin-2-one] | 0.255 µM
COc1cc(N2CCN(CC(C)c3ccccc3)C2=O)ccc1-c1cn[nH]c1 (stereo not shown) [Example 64, 1-[3-Methoxy-4-(1H-pyrazol-4-yl)phenyl]-3-(2-phenylpropyl)imidazolidin-2-one] | 0.387 µM
COc1cc(N2CCN(Cc3cccc(C)c3)C2=O)ccc1-c1ccncc1 [Example 65, 1-[3-Methoxy-4-(4-pyridyl)phenyl]-3-(m-tolylmethyl)imidazolidin-2-one] | 0.0298 µM
COc1cc(N2CCN(Cc3cccnc3)C2=O)ccc1-c1ccncc1 [Example 66, 1-[3-Methoxy-4-(4-pyridyl)phenyl]-3-(3-pyridylmethyl)imidazolidin-2-one] | 0.4 µM
COc1ccccc1CN1CCN(c2ccc(-c3cnco3)c(OC)c2)C1=O [Example 67, 1-[3-Methoxy-4-(1,3-oxazol-5-yl)phenyl]-3-[(2-methoxyphenyl)methyl]imidazolidin-2-one] | 0.702 µM
